Experimental findings from US12115208B2, “Small-molecule adjuvants for antibiotics to address antibiotic resistance” (HIGH POINT UNIVERSITY, priority 2017, dated 2024) are described below.

Test [1] has as its system S. aureus ATCC 29213. The test can be described thus: Minimum inhibitory concentration, broth microdilution. The class given is cell-based. The note with it: Staphylococcus aureus. As to the method:
(§1) The compounds were then analyzed for antibiotic repotentiation activity. […] The tested strains included USA300, which is a common and particularly virulent strain of community-acquired MRSA.

Test [2] concerns S. epidermidis 49461. Nature of the test: Antibiotic repotentiation (oxacillin MIC with/without compound). The class given is cell-based, Staphylococcus epidermidis. On the procedure:
(§2) The overnight culture was diluted into fresh CAMHB to a concentration of 5×10^5 CFU/ml. […] On the same plate, a standard microdilution MIC with the tested antibiotics and no added compound was also performed to compare the antibiotic MIC in the presence and absence of compound. […] Fold reductions were calculated by dividing the MIC of the antibiotic without compound by the MIC of the antibiotic in the presence of compound.
Antibiotic potentiation in S. epidermidis was also investigated.

Test [3] concerns S. aureus USA300 (MRSA). Nature of the test: Minimum inhibitory concentration, broth microdilution. Type of test: cell-based, Staphylococcus aureus. To be noted: 18 h. As to the method:
as §1

Test [4] relates to S. aureus ATCC 43300 (MRSA). The test is described as above. To be noted: 18 h. Type of test: cell-based, Staphylococcus aureus. As to the method: as §1
For test [5], the system named is S. aureus USA100 (MRSA). The test can be described thus: Antibiotic repotentiation (antibiotic MIC with/without compound). To be noted: for MIC of antibiotic: MRSA USA100. Type of test: cell-based, Staphylococcus aureus. On the procedure: as §2
The subject of test [6] is MRSA 43300 biofilm. The test can be described thus: Biofilm inhibition, crystal violet assay. The class given is cell-based, Staphylococcus aureus. The note with it: 30 h. As to the method:
(§3) A standard static crystal violet assay was used to quantify biofilm inhibition.^45 Cultures of S. aureus or S. epidermidis were grown overnight in TSBG (tryptic soy broth with 5% glucose) at 37° C. with shaking. These cultures were used to inoculate fresh TSBG to a calculated optical density of 0.01 at 600 nm (OD600). […] Untreated aliquots were used as a positive control and water served as a negative control. 100 μl of these suspensions were added to the wells of a 96-well polyvinylchloride microtiter plate. […] After incubation, media was discarded and the plates were washed with water to remove non-adherent cells. Adherent biofilms were stained with 110 μl of crystal violet (0.1% in water) and incubated at room temperature for thirty minutes. The crystal violet staining solution was discarded and plates were washed with water to remove excess stain. The resulting stained biofilms were solubilized with 200 μL of 95% ethanol for 10 minutes. 125 μl of the ethanol solutions were transferred to a clear polystyrene microtiter plate for evaluation. Absorbance at 540 nm was recorded using a BioTek Synergy H1 microplate reader. The absorbance of the negative control lanes was subtracted from the experimental values to account for background staining. Percent inhibition was calculated by comparison of the absorbance values of control versus treated wells under identical conditions.
Antibiotic resistance and biofilm formation share similar regulatory mechanisms. […] Biofilm inhibition was first assessed in S. aureus 43300, a methicillin-resistant strain (see Table 18). As described in Materials and Methods, a standard crystal violet assay was used to assess biofilm inhibition by the tested compounds. The IC50 is described as the compound concentration required to inhibit 50% of biofilm formation. The standard deviation is calculated from at least 3 independent experiments.

In test [7] the test system is S. aureus USA100 (MRSA). Nature of the test: microbe, parasite or virus in culture. The class given is cell-based, Staphylococcus aureus. To be noted: compound alone, CAMHB, 18 h.
Test [8] concerns S. aureus 43300 (MRSA). The test can be described thus: Antibiotic repotentiation (antibiotic MIC with/without compound). Type of test: cell-based, Staphylococcus aureus. To be noted: for Fold Reduction: oxacillin MIC. On the procedure:
as §2, §1

The subject of test [9] is S. aureus USA300 (MRSA). Described as above. The note with it: for MIC of antibiotic: MRSA USA300. The class given is cell-based, Staphylococcus aureus. On the procedure:
as §2, §1

In test [10] the test system is S. epidermidis ATCC 49461 biofilm. Nature of the test: Biofilm inhibition, crystal violet assay. Type of test: cell-based, Staphylococcus epidermidis. To be noted: Staphylococcus epidermidis, ATCC49461, 30 h, read-out: Inhibition of biofilm formation IC50. As to the method:
as §3

Test [11] deals with MRSA. Nature of the test: Growth curves. The class given is cell-based, Staphylococcus aureus. To be noted: single treatment: oxacillin 1 μg/mL alone or amoxapine 150 μM alone; MRSA in CAMHB. On the procedure:
The overnight culture was diluted into fresh CAMHB to a concentration of 5×10^5 CFU/ml. The cell suspension (3 mL) was aliquoted into sterile culture tubes and compound was added to achieve the desired concentrations. An untreated aliquot served as the control. 200 μl of each suspension or of the untreated control was aliquoted into a flat-bottomed microtiter plate. The plate was maintained at 37° C. with shaking and absorbance readings (600 nm) were recorded every 30 minutes for 24 hours.
MRSA was grown in cation-adjusted Mueller-Hinton broth (CAMHB). […] The optical density of the cultures at 600 nm was measured every 2 hours for 8 hours and again at 24 hours.

Test [12] deals with S. aureus NR-49120 (VRSA). Nature of the test: Antibiotic repotentiation (antibiotic MIC with/without compound). Type of test: cell-based, Staphylococcus aureus. To be noted: VRSA NR-49120. On the procedure: as §2
Test [13] concerns the target β-lactamase, MSSA ATCC 29213 (Staphylococcus aureus, UniProt P00807). To be noted: treatment alone, compared to untreated cells; MSSA 29213.
Experimental: For whole cell nitrocefin assays, bacteria was cultured overnight in CAMHB at 37° C. with shaking. The overnight culture was subcultured 1:100 in fresh CAMHB and grown at 37° C. with shaking to mid-log phase (OD600=0.4-0.6). The culture was adjusted to an OD600 of 0.2 in fresh CAMHB. […] These suspensions were incubated at 37° C. with shaking for thirty minutes. The suspensions were adjusted to an OD600 of 0.132 in phosphate buffered saline (PBS, pH 7, 900 μl). A 100 μl of a stock solution of nitrocefin (500 mg/ml in PBS) was added to these suspensions and mixed. The nitrocefin-bacteria suspensions (100 μl) were added to the wells of a clear 96-well polystyrene microtiter plate. A 50 mg/ml solution of nitrocefin in PBS served as a blank. Using BioTek Synergy H1 microplate reader maintained at 37° C., the absorbance at 486 nm was recorded every 5 minutes for 2 hours.
The known β-lactamase inhibitor sulbactam was used as a positive control. Again, all assays were run in triplicate and each data point represents the average of three data points.
Test [14] concerns blaI mRNA. Nature of the test: RT-qPCR mRNA levels. The class given is cell-based, Staphylococcus aureus (MRSA). To be noted: oxacillin treatment; relative to 16S rRNA. On the procedure:
(§4) Triplicate cultures of each condition were briefly centrifuged and cell pellets were stored at −80° C. Pellets were resuspended in 100 uL of lyphostaphin (1 mg/mL) and incubated at room temperature for 10 minutes. Next, lysates were subjected to a Qiashredder column and RNA was purified with RNeasy columns according to the manufacturer's protocol (Qiagen). An on-column DNase step was also included. Total RNA was quantified and purity was assessed with a Nanodrop spectrophotometer (Thermo Scientific). RNA integrity was visualized by agarose gel electrophoresis using GelRed (Phenix) and a ChemiDoc MP (BioRad).
(§5) 200 ng of total RNA was reverse transcribed using random primers, according to the manufacturer's protocol (BioRad select cDNA synthesis kit). Minus reverse transcriptase controls were prepared for each sample. Next, duplicate qPCR reactions were performed for each cDNA template using SYBR green according to the manufacturer's protocol (BioRad SYBR Green Supermix). Primer sequences are found in Supporting Information. Those that the authors designed used NCBI Primer Blast to specify the annealing temperatures, length, location, and analyze specificity and secondary structure. All reactions were run on a StepOne thermal cycler (Applied Biosystems). Cycling parameters were as follows: 95° C. for 10 minutes, 40 cycles of 95° C. for 15 seconds followed by 60° C. for 1 minute. Specificity of each primer pair was assessed with melt curve analyses and agarose gel electrophoresis. The efficiency of each primer pair was calculated using results from calibration curves generated in Microsoft Excel. Contaminating genomic DNA levels were calculated using the comparative Ct method. Gene expression levels relative to 16S rRNA were calculated using a relative quantification model.^17 Statistical significance was determined by unpaired student's t tests. All calculations were performed using Microsoft Excel.
(§6) See Blazquez, B. et al., “Regulation of the expression of the beta-lactam antibiotic-resistance determinants in methicillin-resistant Staphylococcus aureus (MRSA),” Biochemistry 2014, 53 (10), 1548; Staude, M. W. et al., “Investigation of signal transduction routes within the sensor/transducer protein BlaR1 of Staphylococcus aureus,” Biochemistry 2015, 54 (8), 1600; Thumanu, K., et al., “Discrete steps in sensing of beta-lactam antibiotics by the BlaR1 protein of the methicillin-resistant Staphylococcus aureus bacterium,” Proc Natl Acad Sci USA 2006, 103 (28), 10630, which are incorporated herein by reference in their entireties.

Test [15] relates to blaZ mRNA. The test can be described thus: RT-qPCR mRNA levels. Type of test: cell-based, Staphylococcus aureus (MRSA). To be noted: oxacillin treatment; relative to 16S rRNA. On the procedure:
as §4, §5, §6

Test [16] has as its system S. aureus ATCC 29213. Nature of the test: Antibiotic repotentiation (antibiotic MIC with/without compound). Type of test: cell-based, Staphylococcus aureus. The note with it: Staphylococcus aureus, ATCC29213, read-out: Oxacillin MIC. As to the method: as §2, §1
Setting [17] is: ATCC29213, compound alone, S. aureus ATCC 29213, CAMHB, 18 h, read-out: MIC.
Where [18] appears, read: +75 μM compound, S. epidermidis 49461.
[19] abbreviates: Staphylococcus aureus, compound alone, S. aureus USA300 (MRSA), CAMHB, read-out: MIC.
[20] abbreviates: Staphylococcus aureus, compound alone, S. aureus ATCC 43300 (MRSA), CAMHB, read-out: MIC.
[21] abbreviates: +50 μM compound, S. aureus 43300 (MRSA).
Where [22] appears, read: +75 μM compound, S. aureus 43300 (MRSA).
Where [23] appears, read: +150 μM compound, S. aureus 43300 (MRSA).

pIC50: −log10 of the molar value. Several values for one entry are separate records, joined by “and”; a condition that tells them apart may be missing. Equal entries are not always repeated. Where two headings read alike, the source gives them in different places.

Sequence of β-lactamase, MSSA ATCC 29213 (P00807 25-281): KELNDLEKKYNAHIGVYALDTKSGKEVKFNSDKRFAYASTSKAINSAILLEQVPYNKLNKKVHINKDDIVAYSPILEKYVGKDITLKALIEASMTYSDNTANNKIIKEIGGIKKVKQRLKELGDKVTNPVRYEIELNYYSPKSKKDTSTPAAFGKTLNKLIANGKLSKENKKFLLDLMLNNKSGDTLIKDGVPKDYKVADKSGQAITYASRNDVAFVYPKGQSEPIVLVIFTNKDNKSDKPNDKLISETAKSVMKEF

As for `CN1CCN(C2=Nc3cc(Cl)ccc3Nc3ccccc32)CC1` [Clozapine, 8-chloro-11-(4-methyl-1-piperazinyl)-5H-dibenzo[b,e][1,4]diazepine, reference compound], the MIC in test [1] (setting [17]) came to 1200 µM; in [3] (setting [19]), 600 µM; in [4] (setting [20]), 600 µM. Moreover, the “Oxacillin MIC” value in test [2] (setting [18]) amounted to 16 µg/mL.
As to `Clc1ccc2[nH]c3ccc(Cl)cc3c2c1` [IV-6], the “Fold Reduction” value was 1024/2048 in test [5] (oxacillin MIC, +50 μM compound, S. aureus USA100 (MRSA)); 32 in [8] (setting [21]); 4/8 in test [9] (oxacillin MIC, +50 μM compound, S. aureus USA300 (MRSA)). Moreover, the pIC50 in [6] is 4.99. Besides, the MIC in test [3] (compound alone, S. aureus USA300 (MRSA), CAMHB, read-out: MIC) is greater than 200 µM; in test [4] (compound alone, S. aureus ATCC 43300 (MRSA), CAMHB, read-out: MIC) it was greater than 200 µM; in test [7], greater than 200 µM. The “Oxacillin MIC” value in test [8] (setting [21]) is 1 µg/mL; in test [9] (+50 μM compound, S. aureus USA300 (MRSA)), 16/8.
With `CN1CCN(C2=Nc3ccccc3Oc3ccc(Cl)cc32)CC1` [Loxapine, 2-chloro-11-(4-methyl-1-piperazinyl)dibenz[b,f][1,4]oxazepine, reference compound], the MIC in [1] (setting [17]), in test [3] (setting [19]) and in [4] (setting [20]) was 600 µM in each case. Besides, the “Oxacillin MIC” value in test [2] (setting [18]) was determined as 8 µg/mL. For the same compound, the “Fold Reduction” value is given as 2 in [2] (oxacillin MIC, +75 μM compound, S. epidermidis 49461); 1 in test [8] (setting [22]); 4 in [8] (setting [23]). Also, the pIC50 in [10] is 3.57.
`Cc1cc2c(s1)Nc1ccccc1N=C2N1CCN(C)CC1` [Olanzapine, reference compound]: the MIC in test [1] (ATCC29213, 18 h) turned out to be 600 µM; in test [3] (Staphylococcus aureus), 600 µM; in test [4] (Staphylococcus aureus), 600 µM. Moreover, the “Fold Reduction” value in test [8] (setting [22]) and in test [8] (setting [23]) was 1 throughout.
As for `Cc1onc(-c2ccccc2)c1C(=O)N[C@@H]1C(=O)N2[C@@H]1SC(C)(C)[C@@H]2C(=O)O` [Oxacillin], the “effect on cell density (OD 600 nm) after 24 hours” value in [11] is recorded as “negligible effect”. The MIC of antibiotic stood at 64 µg/mL in test [12] (+Loratadine 25 μM); 16 µg/mL in [12] (+Loratadine 50 μM); 0.25 µg/mL in [5] (+Loratadine 50 μM); 256 µg/mL in [5] (antibiotic alone); 2 µg/mL in [8] (+Amoxapine (150 μM), S. aureus 43300 (MRSA)); 4 µg/mL in [8] (+Loratadine 25 μM, MRSA 43300). Besides, the MIC of antibiotic in [8] (+Loratadine 50 μM, MRSA 43300) is 1 µg/mL; in test [8] (antibiotic alone, no compound, S. aureus 43300 (MRSA)) it was 32 µg/mL and 16 µg/mL; in test [8] (antibiotic alone, S. aureus ATCC 43300 (MRSA)), 32 µg/mL; in [9] (+Loratadine 25 μM), 2 µg/mL; in test [9] (+Loratadine 50 μM) it was 0.5 µg/mL; in test [9] (antibiotic alone), 32 µg/mL. Also, the MIC in test [5] (Staphylococcus aureus, read-out: Oxacillin MIC) stood at 512 µg/mL; in test [2] (Staphylococcus epidermidis, 49461, 18 h, read-out: Oxacillin MIC) it was 16 µg/mL; in test [9] (Staphylococcus aureus, read-out: Oxacillin MIC, oxacillin alone, S. aureus USA300 (MRSA)), 32 µg/mL; in [16], 0.25 µg/mL. For the same compound, the “effect on β-lactamase activity (nitrocefin hydrolysis)” value in test [13] is recorded as “little effect”. In addition, the “increase in blaI levels” value in test [14] came out at 13 fold. Moreover, the “increase in blaZ mRNA” value in test [15] is given as 38 fold. Also, in [9] (oxacillin alone, S. aureus USA300 (MRSA)), the “Oxacillin MIC” value was 64 µg/mL.
